Legend:
[1] = In vitro PTX release: hydrolysis of PTX succinic acid in PBS (HPLC); type: physicochemical; conditions: for half-life: PBS, 37° C.; for PTX-succinate remaining intact: after 24 hours
Procedure: In Vitro PTX Release. Hydrolytic studies of PTX succinic acid were carried out at 37° C. in PBS containing 0.01% DMSO and 0.1% Tween 80 at pH 7.4 and pH 6.5. 5.33 μM of PTX-succinic acid was dissolved in a 5 ml of medium and kept continuously stirring at 150 rpm/min. 50 μL of sample was removed at predetermined time intervals of 0, 24, 48, 72 and 96 hours and replaced with 50 μL of fresh media. Removed samples were mixed with 50% of acetonitrile and analyzed using Agilent 1290 HPLC system with Agilent 2.1×50 mm C18 column and mobile phase consisting of 60% ammonium formate and 40% acetonitrile. Concentration of PTX-SA and free PTX were determined using calibration curves.
The hydroxyl group at the C-2′ position is necessary for paclitaxel's anticancer activities. Therefore, the succinate ester must hydrolyze to achieve desired antitumor responses (41). We measured paclitaxel release from PTX-succinate in PBS at 37° C. in both neutral pH and the slightly acidic conditions (pH˜6.5) commonly observed in the tumor microenvironments. Disappearance of the PTX succinate peak and appearance of PTX peak was quantified using HPLC. […] After 24 hours, nearly 82% of PTX-succinate remained intact in acidic conditions, while 54% remained in the neutral condition. […] In contrast at the more acidic pH, paclitaxel continued its accumulation in the release media, with 60% of initial dose observed at 96 hours.

[2] = test system: KPC 4662 murine pancreatic tumor; test: In vivo assessment of PTX-sNHS induced apoptosis (cleaved caspase 3 staining); design: species or system C57BL/6 mice; conditions: 72 hours after single intratumoral injection, 20 mg/kg
Description: To assess the ability of intratumoral depots to release free paclitaxel and induce apoptotic tumor cell death, ectopic pancreatic tumor model was developed by subcutaneous inoculation of approximately 1*10^6 KPC 4662 murine pancreatic tumor cells in 1:1 PBS/matrigel (Corning/cat #354234) solution on the dorsal flanks of 8 week old female albino C57BL/6 mice (Charles River). Once the tumors were approximately 100 mm^3 in volume, animals were randomly divided into four groups to receive either no treatment or single intratumoral injection of vehicle (50% NMP: alfa aesar, #AA44063-K2, 50% Saline: cat #470302-026, VWR), free paclitaxel (Medkoo, cat #100690, 20 mg/kg) and paclitaxel-sNHS (n=3/group, 20 mg/kg). […] For quantification of apoptosis, CC-3-stained vs hematoxylin-stained areas were measured with respect to total tumor area (45, 46).
To investigate whether intratumoral injection of TRAP paclitaxel has therapeutic efficacy in vivo, we studied paclitaxel-induced apoptosis in the fibrous, syngeneic KPC 4662 pancreatic adenocarcinoma mouse model. […] For quantification of apoptosis, whole tissue sections were scanned to detect CC-3 positive areas and quantified to assess the percent of whole tumor area undergoing apoptosis. […] Quantification of apoptosis was performed by computationally separating CC-3 stained from hematoxylin stained areas (45). […]

[3] = Aqueous solubility compared to paclitaxel; type: physicochemical
U87 tumor [4] = test: Tumor inhibition and survival after intratumoral or intravenous aldoxorubicin; type: in vivo, nude mice; conditions: intratumoral 10.5 mg/kg; compared to saline and intravenous aldoxorubicin
Description: FIGS. 14A-14D show the impact of intratumoral anchoring and local tumor release of a chemotherapeutic agent (aldoxorubicin) functionalized with a maleimide tissue binding moiety. FIG. 14A plots the percent change in tumor volume as a function of days after injection for mice treated with saline injection alone (control), intravenous injection of aldoxorubicin, and intratumoral injection of aldoxorubicin. FIG. 14B is a plot showing the probability of survival for mice treated with saline injection alone (control), intravenous injection of aldoxorubicin, and intratumoral injection of aldoxorubicin. FIG. 14C is a plot comparing tumor volume 7 days after treatment with saline injection alone (control), treatment with intravenous injection of aldoxorubicin, and treatment with intratumoral injection of aldoxorubicin. FIG. 14D is a plot comparing tumor volume 14 days after treatment with saline injection alone (control), treatment with intravenous injection of aldoxorubicin, and treatment with intratumoral injection of aldoxorubicin.
In a further proof-of-principle study, aldoxorubicin was used to validate the concept of anchoring (and subsequent local tumor release) of a chemotherapeutic agent functionalized with a maleimide tissue binding moiety. […] Tumor size and weight were measured at varying intervals following injection. […]

dermal tissue = test: Intradermal anchoring of Cy7-maleimide (IVIS fluorescence); type: in vivo, CD-1 mice
Procedure: FIG. 12 is a plot showing the percent of the initial injection dose (% ID) maintained one day and one week following injection of Cy7-maleimide alone, Cy7-maleimide plus tris(2-carboxyethyl)phosphine (TCEP), and Cy7-maleimide plus mercaptoethanol (MCE).
To investigate whether maleimide molecules can anchor to dermal tissue by binding to available thiol groups, CD-1 mice were injected intradermally with Cy7-maleimide (50 uL of 0.2 mM) and monitored for fluorescence over 1 week using an IVIS imager. ICG/ICG excitation and emission filters were used for all IVIS images. Cy7-maleimide plus TCEP was used to attempt to increase free thiols by breaking disulfide bonds.

U87 tumor [5] = test: Intratumoral anchoring of Cy7-maleimide (IVIS fluorescence); type: in vivo, nude mice; conditions: 50 uL of 0.2 mM, 1 week after injection
Procedure: FIG. 13 illustrates the intratumoral anchoring of Cy7-maleimide after one week.
To investigate whether active maleimide molecules can anchor to tissue in a tumor, nude mice were injected subcutaneously with U87 tumor cells mixed with Matrigel. Once tumor reached 100 mm^3, Cy7-maleimide (50 uL of 0.2 mM) was injected intratumorally and monitored for fluorescence over 1 week using an IVIS imager. ICG/ICG excitation and emission filters were used for all IVIS images. […] This validated that anchorable drug compounds containing a maleimide tissue binding moiety could efficiently react with thiol moieties present in proteins found within tumors following intratumoral injection.

Compound: 2′-O-succinyl paclitaxel [PTX-succinate]
- half-life ([1]; neutral pH): ~37 h
- half-life ([1]; pH 6.5): ~56 h
- free paclitaxel in release media, of initial dose ([1]; acidic pH (6.5), 96 hours): 60%
- PTX-succinate remaining intact ([1]; acidic conditions (pH 6.5)): ~82%
- PTX-succinate remaining intact ([1]; neutral condition): 54%
- free paclitaxel released (maximum) ([1]; neutral pH, 96 hours): 32%

Compound: CC(=O)O[C@H]1C(=O)[C@@]2(C)[C@H]([C@H](OC(=O)c3ccccc3)[C@]3(O)C[C@H](OC(=O)[C@H](O)[C@@H](NC(=O)c4ccccc4)c4ccccc4)C(C)=C1C3(C)C)[C@]1(OC(C)=O)CO[C@@H]1C[C@@H]2O [paclitaxel]
- apoptotic area (CC-3 stained), of total tumor area [2]: 27%
- necrosis, of tumor area ([2]; color saturation analysis): ~30%
- aqueous solubility [3]: poorly soluble

Compound: COc1cccc2c1C(=O)c1c(O)c3c(c(O)c1C2=O)C[C@@](O)(/C(CO)=N/NC(=O)CCCCCN1C(=O)C=CC1=O)C[C@@H]3O[C@H]1C[C@H](N)[C@H](O)[C@H](C)O1 [aldoxorubicin]
- survival probability (U87 tumor [4]): improved
- tumor inhibition (U87 tumor [4]): improved

Compound: C[N+]1=C(C=CC2=CC(=CC=C3N(CCCCCC(=O)NCCN4C(=O)C=CC4=O)c4ccccc4C3(C)C)CCC2)C(C)(C)c2ccccc21.[Cl-] [Cy7-maleimide, cyanine 7 maleimide]
- skin irritation or skin toxicity (dermal tissue; intradermal injection, monitored over 1 week): No skin irritation or skin toxicity was observed
- injection dose maintained (dermal tissue; intradermal, 50 uL of 0.2 mM, after 1 week): approximately 10%
- injection dose maintained (U87 tumor [5]): approximately 18%

Reference: patent US20230390403A1, “COMPOSITIONS AND METHODS FOR DRUG DELIVERY” (North Carolina State University, priority 2020, published 2023)
